Broadly, the melting point is the temperature, or range, at which the solid turns liquid.

`Cn1cc(CN2CCN(CCOc3ccc(C=C4SC(=O)NC4=O)cc3)CC2)c2ccccc21` showed a melting point of 183 to 188 °C. Next, `Nc1ncnc2c1ncn2Cc1nc2c(Cl)cccc2c(=O)n1-c1ccccc1Cl`: 273 to 274 °C; `COc1ccncc1NC(=O)c1c[nH]c2c1C(=O)CCC2`: 209 to 210 °C. As for `CCOC(=O)c1cnc(-c2ccccc2OC(C)CC)[nH]c1=O` (stereo unspecified), the figure is 134 to 136 °C. The molecule `N#Cc1ccc(NN)cc1` displayed a melting point of 84 to 87 °C. For `COc1cc2nc(Cl)nc(N3CCN(C(=O)Nc4ccc(Oc5ccccc5)cc4)CC3)c2cc1OC`, the melting point is 178 to 179 °C. As for `Cc1ccccc1C(=O)Nc1ccc(C(=O)N2CCCC(OCC(=O)N(C)C)c3ccccc32)cc1` (stereo unspecified), the melting point lay within 203 to 204 °C.

The molecule `CCC(COC(=O)c1ccc[nH]1)C1CN(C)C2Cc3cn(C)c4cccc(c34)C2(OC)C1` (stereo unspecified) came in with a melting point of 96 to 98 °C. Next, `CC1(C)CC(=O)Nc2cc3nc(-c4ccccc4)[nH]c3cc21`: 296 to 298 °C; `C=CCN(c1ccccc1C=C(SC)S(C)=O)c1c(Cl)cccc1Cl` (stereo unspecified): 104 to 107 °C; `CCC(N)CCCCCCCCC(C)(C)C(=O)O` (stereo unspecified): 164 to 165 °C. As for `CN(C)c1nc2n(n1)Cc1ccccc1-2`, the figure is 164 to 166 °C.

As to `Cc1c(SCCCSc2sccc2[N+](=O)[O-])ccnc1CO`, the melting point lay in the range of 134 to 138 °C. As for `CCOc1ccccc1-c1cccc(-n2cnc(-c3nc(C)no3)c2)c1`, the figure is 110 to 113 °C; as for `CN(C)CC1CC(c2ccc(Cl)cc2)c2ccccc2O1` (stereo unspecified), 120 to 122 °C; as for `CCOC(=O)C(Cc1ccc(OCCc2nc(-c3ccccc3)oc2C)cc1)C(=O)O` (stereo unspecified), 95.1 to 96 °C. `N#CCCCCCCCCCOc1cccc(C(N)=O)c1` yielded a melting point of 96 to 97 °C. Next, `O=C(c1ccccc1)c1cc(Cl)ccc1CCCN1C(=O)c2ccccc2C1=O`: 94 to 97 °C. For `C#CCOc1cc(-n2nc(C)c(Cl)c2C)c(Cl)cc1Cl`, the melting point lay within 156 to 158 °C. `CC(C)(C)c1cc(C(=O)c2ccc(O)cc2O)cc(C(C)(C)C)c1O` came in with a melting point of 192 to 193 °C. Consider `COc1c(C(C)=O)cnc2c(N)cccc12`, for which the melting point lay in the range of 76 to 77 °C. As for `COc1ccc2c(C=O)c(OCc3ccccc3)ccc2c1C(F)(F)F`, the figure is 143 to 145 °C; as for `COC(=O)C(CO)N(Cc1ccc(Cl)cc1N)S(=O)(=O)c1ccc(OC)cc1` (stereo unspecified), 99 to 112 °C. Next, `NCC1Cc2cccc(-c3ccc4ccccc4c3)c2O1` (stereo unspecified): 135 to 140 °C; `CCOC(=O)/C(=N\OC(C)(CC)C(=O)OC(C)(C)C)c1csc(NC(c2ccccc2)(c2ccccc2)c2ccccc2)n1` (stereo unspecified): 122 to 125 °C. `C[C@H](/C=C\c1ccc(Cc2ccc(F)cc2)s1)N(O)C(N)=O` had a melting point of 123 to 124 °C. With `O=C1CCC2=C1C(c1ccc(Cl)c(Cl)c1)C1=C(CCS1)N2` (stereo unspecified), the melting point was over 260 °C. In the case of `COc1ccc(CN2C(=O)[C@@H](NC(=O)Cc3ccccc3)[C@H]2CNC(C)=O)c(OC)c1` (relative stereo), the melting point was in the range of 205 to 207 °C. Consider `O=S1(=O)N=CN(C2CC2)c2cccc(Cl)c21`, for which the melting point lay in the range of 207 to 209 °C. As for `COC(=O)c1coc2c1C(=O)CCC2`, the figure is 100 to 102 °C; as for `CCOC(=O)c1[nH]c(C)c(C)c1OCCCCl`, 60 to 63 °C; as for `CCCCOCCOCCOc1ccc(-c2ccc(C(=O)O)cc2)cc1`, 174 to 176 °C. `CCCCc1oc2ccccc2c1C(O)c1ccc(-c2ccc(O)cc2)cc1` (stereo unspecified) displayed a melting point of 47 to 49 °C. In the case of `CCCCCCCCCCCCCCCCSCC(CN)NC(=O)OC` (stereo unspecified), the melting point is 49 to 50.5 °C. As for `CCn1cc(S(=O)(=O)NC(=O)c2cn3cc(C(F)(F)F)cc(Cl)c3n2)c(C)n1`, the figure is 189 to 190 °C. `CC(=O)OCc1ccc([N+](=O)[O-])cc1` yielded a melting point of 77 to 78 °C. As for `CCN(CC)C(=O)c1ccc(C(c2cccc(O)c2)N2CC(C)NCC2C)cc1` (stereo unspecified), the figure is 175 to 177 °C; as for `Clc1ccc(-c2cncn3ncnc23)cc1`, 154 to 155 °C.

The molecule `c1ncn(CCc2ccc3c(c2)-c2[nH]nc(-c4ccsc4)c2C3)n1` had a melting point of 167 to 168 °C. Regarding `N#CCc1cnn2ccc3c(c12)CCO3`, the melting point fell in the range of 165 to 166 °C. As for `O=C(C1(F)CC1Cc1ccc(Cl)cc1)C1(F)CC1Cc1ccc(Cl)cc1` (stereo unspecified), the figure is 53 to 54 °C; as for `COC(=O)COC1C(O)C(CO)OC(Oc2ccc(N)cc2)C1O` (stereo unspecified), 155 °C; as for `COC(=O)C1=Cc2cc(-c3ccc(N4CCOCC4)cc3)ccc2SCC1`, 154 to 156 °C. In turn, `CCOC(=O)C1(O)C=CN=c2ccc3c(c21)NCN=3` (stereo unspecified) came in with a melting point of 315 to 316 °C. Next, `CN(C)c1nc(=O)n(-c2cc(OCc3ccccc3)c(Cl)cc2F)c(=O)n1C`: 193 to 194 °C; `CC(CCNCCOc1cccc2[nH]ccc12)c1c[nH]c2ccccc12` (stereo unspecified): 70 to 73 °C. As for `COC(=O)c1ccc2cc(Cl)ccc2c1`, the figure is 97 to 98 °C; as for `COCCOCCN1C(=O)C2(COc3cc4c(cc32)OCCO4)c2c(OC)cc(OC)cc21` (stereo unspecified), 158 to 160 °C; as for `COc1ccc(N2CCN(N=O)CC2)cc1`, 94.5 °C. Next, `OC(CC(Br)=CBr)(CC(Br)=CBr)Cn1cncn1` (stereo unspecified): 100 °C; `COc1cc(C=CC(=O)O)ccc1NC(C)=O`: 222 to 230 °C. For `Cc1c(C)c2c(c(C)c1NC=O)CC(C)(CSc1nc3ccccc3s1)O2` (stereo unspecified), the melting point was in the range of 190 to 192 °C. With `Cc1cc2c(c3ccc(=O)[nH]c13)OC(CNC(=O)C(C)(C)NC(=O)OCc1ccccc1)C2` (stereo unspecified), the melting point was in the range of 220 to 222 °C. For `Nc1ccc(-n2ccnc2S(=O)Cc2ccccc2N2CCOCC2)nc1` (stereo unspecified), the melting point was 190 to 192 °C.

`C=CCOc1ccc2c(C)cc(=O)oc2c1` came in with a melting point of 110 °C. As for `c1ccc(-c2nc3ccccc3s2)nc1`, the figure is 133 to 134 °C. Next, `Cc1cc(Br)cnc1CCCn1nnc2cc(Cc3cccnc3)cnc21`: 109 to 110 °C; `CC(C)C(=Nc1ccc([N+](=O)[O-])c(C(F)(F)F)c1)N(C)c1ccccc1`: 52.5 to 54 °C; `Cc1cc2c(cc1N)C(C)(C)CCC2(C)C`: 94 to 95 °C. `CCC(=O)C1=C(O)CC(c2c(C)cc(C)c([N+](=O)[O-])c2C)CC1=O` (stereo unspecified) returned a melting point of 174 °C. Molecule `O=c1c(C2=CS(=O)(=O)c3cc(NS(=O)(=O)C4CC4)ccc3N2)c(O)c2cc(F)ccc2n1CCC1CC1` displayed a melting point of 145 to 155 °C. Next, `CCOC(=O)c1cc2cc(O)ccc2n1C`: 140 to 142 °C; `Cc1ccc2nc(CCl)cn2c1`: 88 to 89.2 °C; `O=C(O)CNC(=O)c1ccc([N+](=O)[O-])cc1F`: 156 to 158 °C. For `CNC(=O)c1cc(Br)cc(F)c1Nc1nc(Cl)ncc1Cl`, the melting point is 246 to 249 °C. With `NC(=O)c1c(F)ccc(OCc2nc(-c3ccc(O)cc3)no2)c1F`, the melting point lay in the range of 209 to 210 °C. As for `CCOC(=O)c1c[nH]c(-c2ccccc2OCc2ccccc2)n1`, the figure is 203 to 205 °C; as for `O=c1ccoc2cccc(OCCCN3CCN(c4ccccc4)CC3)c12`, 106 to 112 °C; as for `COc1cccc(C2SCCCS2)c1OC`, 119 to 120 °C. As for `Cc1nnc(SCC2=C(C(=O)O)N3C(=O)C(N)C3SC2)s1` (stereo unspecified), the figure is 206 °C; as for `O=C(Nc1ccnnc1)Oc1ccccc1`, 184 to 185 °C. In turn, `O=C(NCc1cccnc1)c1cc2ccnc(N(Cc3ccccc3)Cc3ccccc3)c2[nH]1` yielded a melting point of 105 to 108 °C.

`COc1ccc(CCN2CCC(NC(=O)C34CC5CC(CC(C5)C3)C4)C2)cc1` (stereo unspecified) came in with a melting point of 81 to 83 °C. Next, `Cc1ccc(S(=O)(=O)OCC2Cc3cccc(-c4cccc(C(F)(F)F)c4)c3O2)cc1` (stereo unspecified): 90 to 93 °C. Consider `O=C1CCC(C(=O)OC(C(=O)c2ccccc2)c2ccccc2)N1` (stereo unspecified), for which the melting point fell in the range of 123 to 131 °C. Turning to `O=C(CC1C(=S)Nc2ccccc21)NCc1ccccc1` (stereo unspecified), the melting point was in the range of 193 to 195 °C. As for `O=c1[nH][nH]c(C(F)(F)F)c1Cc1ccc2nccnc2c1`, the figure is 266 to 268 °C. Next, `CC#Cc1cc(N(C)C)nc(Nc2ccccc2)n1`: 150 to 152 °C; `Cc1ccc(-c2csc(-c3ccc(C(=O)O)cc3)n2)cc1C`: 261 to 262 °C; `CC(C)(C)NC(=O)c1ccc(S(=O)(=O)N2C(=O)C(C)(c3ccccc3Cl)c3cc(O)ccc32)cc1` (stereo unspecified): 262 °C.

`Clc1cccc(Cl)c1C=Nc1c2c(nc3ccccc13)CCCC2`: the melting point is 200 to 202 °C. `COc1ccccc1SCC(O)CN(C)Cc1cc2c(=O)c(C(=O)NCc3ccc(Cl)cc3)cn(C)c2o1` (stereo unspecified) came in with a melting point of 145 to 147 °C. As to `CCCc1nc2c(N)nc3ccccc3c2n1CCCCCC(=O)N(C)OC`, the melting point lay in the range of 134 to 135 °C. For the molecule `O=C1CCC(c2ccc(OCCBr)cc2)CC1`, the melting point fell in the range of 91 to 92 °C.

For the molecule `COc1ncccc1Nc1c(NC(NC(=O)c2cc(F)cc(F)c2)C(C)(C)C)c(=O)c1=O` (stereo unspecified), the melting point lay in the range of 221 to 223 °C. As to `COc1ccc(-c2nc(-c3cccn3Cc3ccccc3)[nH]c2-c2ccc(OC)cc2)cc1`, the melting point amounted to 183 °C. Next, `Cc1cc(-c2cccc(Cl)c2C=O)ccc1F`: 74 to 79 °C; `Cc1sc2c(c1C)C(c1ccc(Cl)cc1)=NC(CC(=O)NCCN)c1nnc(C)n1-2` (stereo unspecified): 142 to 146 °C. In turn, `CCOC(=O)c1c[nH]c(Cc2ccc(OC)cc2)n1` yielded a melting point of 119 to 121 °C. As for `O=C1NC(=O)C(Cc2ccc(OCCN3c4ccccc4Oc4ccccc43)cc2)S1` (stereo unspecified), the melting point was 170 to 172 °C. In turn, `Brc1cc(C#Cc2ccccc2)c(Br)cc1C#Cc1ccccc1` displayed a melting point of 155 to 158 °C.

Source of the values: a melting point compilation (Tetko et al.; mined from patent text by program, amines drawn as free bases though some values may be those of a salt).
